Measured values as given in ChEMBL document CHEMBL3885861, “Open TG-GATES”.

Species: Rattus norvegicus
Assay: Open TG-GATES - Regimen: Single
Format: toxicity, organism-based, Sprague-Dawley
Parameters: regimen Single, gender Male, age 6 weeks
Conditions: in vivo, po, 2000 mg/kg, route gavage, dose level High; for APTT / Bas / Eos / Fbg / Hb / Ht / Lym / MCH / MCHC / MCV / Mono / Neu / PT / Plat / RBC / Ret / WBC: tissue Blood; for KIDNEY_L / KIDNEY_R / KIDNEY_TOTAL: tissue Kidney; for LIVER: tissue Liver; for A/G / ALP / ALT / AST / BUN / CRE / Ca / Cl / DBIL / GLC / IP / K / LDH / Na / PL / RALB / TBIL / TC / TG / TP / gamma-GTP: tissue Plasma

With `CCOc1ccc(NC(=O)CC(C)O)cc1` (configuration not stated) [BUCETIN] the TERMINAL_BW (3 h) was 211.9 g, the APTT (3 h) was 16.2 s and the Bas (3 h) was 0%. For the same compound, the Eos (3 h) was 1%, the Fbg (3 h) was 308.4 mg/dL and the Hb (3 h) was 13.1 g/dL. It also gave a Ht (3 h) of 38.8%, a Lym (3 h) of 74.8% and an MCH (3 h) of 20.8 pg. It also gave an MCHC (3 h) of 33.8%, an MCV (3 h) of 61.7 fL and a Mono (3 h) of 2.8%. The Neu (3 h) was 21%, the PT (3 h) was 13.7 s and the Plat (3 h) was 123.8 x10_4/uL. For the same compound, the RBC (3 h) was 628.8 x10_4/ul, the Ret (3 h) was 8.2% and the WBC (3 h) was 70.6 x10_2/uL. It also gave a KIDNEY_L (3 h) of 0.9 g, a KIDNEY_R (3 h) of 0.9 g and a KIDNEY_TOTAL (3 h) of 1.9 g. It also gave an LIVER (3 h) of 9.3 g, an A/G (3 h) of 0.9 and an ALP (3 h) of 1367.8 IU/L. The ALT (3 h) was 30.4 IU/L, the AST (3 h) was 66 IU/L and the BUN (3 h) was 9.2 mg/dL. It also gave a CRE (3 h) of 0.1 mg/dL, a Ca (3 h) of 10.8 mg/dL and a Cl (3 h) of 103.8 meq/L. The DBIL (3 h) was 0.032 mg/dL, the GLC (3 h) was 198.4 mg/dL and the IP (3 h) was 9.5 mg/dL. It also gave a K (3 h) of 4.1 meq/L, an LDH (3 h) of 67 IU/L and a Na (3 h) of 141 meq/L. It also gave a PL (3 h) of 148 mg/dL, an RALB (3 h) of 2.5 g/dL and a TBIL (3 h) of 0.054 mg/dL. For the same compound, the TC (3 h) was 83.4 mg/dL, the TG (3 h) was 52.2 mg/dL and the TP (3 h) was 5.4 g/dL. The gamma-GTP (3 h) was 1.2 IU/L, the TERMINAL_BW (6 h) was 209.3 g and the APTT (6 h) was 21.1 s. The Bas (6 h) was 0.2%, the Eos (6 h) was 0.4% and the Fbg (6 h) was 315.2 mg/dL. The Hb (6 h) was 13.7 g/dL, the Ht (6 h) was 40.6% and the Lym (6 h) was 79%. It also gave an MCH (6 h) of 20.7 pg, an MCHC (6 h) of 33.7% and an MCV (6 h) of 61.2 fL. The Mono (6 h) was 2.2%, the Neu (6 h) was 17.8% and the PT (6 h) was 13.5 s. It also gave a Plat (6 h) of 124.4 x10_4/uL, an RBC (6 h) of 662.8 x10_4/ul and a Ret (6 h) of 8.2%. The WBC (6 h) was 64.5 x10_2/uL, the KIDNEY_L (6 h) was 0.9 g and the KIDNEY_R (6 h) was 0.9 g. For the same compound, the KIDNEY_TOTAL (6 h) was 1.9 g, the LIVER (6 h) was 8.5 g and the A/G (6 h) was 0.9. It also gave an ALP (6 h) of 1336.4 IU/L, an ALT (6 h) of 36.2 IU/L and an AST (6 h) of 68.6 IU/L. For the same compound, the BUN (6 h) was 8.4 mg/dL, the CRE (6 h) was 0.1 mg/dL and the Ca (6 h) was 10.6 mg/dL. It also gave a Cl (6 h) of 102.2 meq/L, a DBIL (6 h) of 0.032 mg/dL and a GLC (6 h) of 201.8 mg/dL. It also gave an IP (6 h) of 10.1 mg/dL, a K (6 h) of 3.7 meq/L and an LDH (6 h) of 79.4 IU/L. The Na (6 h) was 141.2 meq/L, the PL (6 h) was 147.4 mg/dL and the RALB (6 h) was 2.6 g/dL. For the same compound, the TBIL (6 h) was 0.048 mg/dL, the TC (6 h) was 85.2 mg/dL and the TG (6 h) was 27.6 mg/dL. The TP (6 h) was 5.5 g/dL, the gamma-GTP (6 h) was 1.4 IU/L and the TERMINAL_BW (9 h) was 208.4 g. For the same compound, the APTT (9 h) was 18.5 s, the Bas (9 h) was 0% and the Eos (9 h) was 0.8%. The Fbg (9 h) was 314.8 mg/dL, the Hb (9 h) was 13.3 g/dL and the Ht (9 h) was 39%. The Lym (9 h) was 80.6%, the MCH (9 h) was 20.8 pg and the MCHC (9 h) was 34%. For the same compound, the MCV (9 h) was 61.1 fL, the Mono (9 h) was 2.2% and the Neu (9 h) was 16.2%. The PT (9 h) was 14.1 s, the Plat (9 h) was 119.7 x10_4/uL and the RBC (9 h) was 639.8 x10_4/ul. The Ret (9 h) was 8.3%, the WBC (9 h) was 54.6 x10_2/uL and the KIDNEY_L (9 h) was 0.9 g. It also gave a KIDNEY_R (9 h) of 0.9 g, a KIDNEY_TOTAL (9 h) of 1.9 g and an LIVER (9 h) of 8.2 g. The A/G (9 h) was 0.9, the ALP (9 h) was 1215 IU/L and the ALT (9 h) was 28.8 IU/L. The AST (9 h) was 62.8 IU/L, the BUN (9 h) was 8.2 mg/dL and the CRE (9 h) was 0.1 mg/dL. The Ca (9 h) was 10.5 mg/dL, the Cl (9 h) was 103.4 meq/L and the DBIL (9 h) was 0.042 mg/dL. For the same compound, the GLC (9 h) was 199.2 mg/dL, the IP (9 h) was 9.8 mg/dL and the K (9 h) was 4.1 meq/L. The LDH (9 h) was 64.2 IU/L, the Na (9 h) was 140.6 meq/L and the PL (9 h) was 150.6 mg/dL. For the same compound, the RALB (9 h) was 2.6 g/dL, the TBIL (9 h) was 0.052 mg/dL and the TC (9 h) was 82.6 mg/dL. It also gave a TG (9 h) of 43.6 mg/dL, a TP (9 h) of 5.5 g/dL and a gamma-GTP (9 h) of 1 IU/L. The TERMINAL_BW (24 h) was 202.1 g, the APTT (24 h) was 17.9 s and the Bas (24 h) was 0.4%. The Eos (24 h) was 0.8%, the Fbg (24 h) was 294.2 mg/dL and the Hb (24 h) was 14 g/dL. It also gave a Ht (24 h) of 41.4%, a Lym (24 h) of 79.2% and an MCH (24 h) of 20.9 pg. For the same compound, the MCHC (24 h) was 33.8%, the MCV (24 h) was 61.7 fL and the Mono (24 h) was 3%. For the same compound, the Neu (24 h) was 16%, the PT (24 h) was 14.4 s and the Plat (24 h) was 128.9 x10_4/uL. For the same compound, the RBC (24 h) was 670 x10_4/ul, the Ret (24 h) was 7.1% and the WBC (24 h) was 75.9 x10_2/uL. For the same compound, the KIDNEY_L (24 h) was 1 g, the KIDNEY_R (24 h) was 0.9 g and the KIDNEY_TOTAL (24 h) was 1.9 g. It also gave an LIVER (24 h) of 8.4 g, an A/G (24 h) of 0.9 and an ALP (24 h) of 1381.2 IU/L. It also gave an ALT (24 h) of 46.2 IU/L, an AST (24 h) of 96.4 IU/L and a BUN (24 h) of 11.8 mg/dL. It also gave a CRE (24 h) of 0.2 mg/dL, a Ca (24 h) of 10.9 mg/dL and a Cl (24 h) of 104.8 meq/L. It also gave a DBIL (24 h) of 0.078 mg/dL, a GLC (24 h) of 175.2 mg/dL and an IP (24 h) of 9.7 mg/dL. It also gave a K (24 h) of 4.1 meq/L, an LDH (24 h) of 102.4 IU/L and a Na (24 h) of 142.4 meq/L. The PL (24 h) was 166.6 mg/dL, the RALB (24 h) was 2.7 g/dL and the TBIL (24 h) was 0.078 mg/dL. The TC (24 h) was 97.6 mg/dL, the TG (24 h) was 57 mg/dL and the TP (24 h) was 5.8 g/dL. The gamma-GTP (24 h) was 1 IU/L.
